Data reported in patent US8552058B2, “Application of L-n-butylphthalide in preventing and treating dementia” (CSPC Zhongqi Pharmaceutical Technology (Shijazhuang) Co., …, priority 2004, dated 2013).
Entries after “also recorded” stand apart in the source; their conditions may differ.

What was measured:
[1] = test system: rats with permanent ligation of bilateral common carotid arteries (2-VO model); assay: Morris' water maze (training latency, platform exploration) in 2-VO hypoperfusion model; format: in vivo, Wistar rats; conditions: for effect on detention time in the target quadrant (platform exploration test) / improvement of latency / search strategy in water maze: 2-VO rats; for improvement of latency / search strategy in water maze: vs solvent control; for amelioration of impaired short-term memory and spatial orientation (overall conclusion): 2-VO rats with poor blood supply to brain, L-NBP at 10 mg/kg, 10 mg/kg
[2] = test system: rats with continuous perfusion of Aβ (1-40) into lateral ventricle; assay: Morris' water maze and working memory test after continuous i.c.v. perfusion of Aβ (1-40); format: in vivo, Wistar rats; conditions: continuous perfusion of Aβ (1-40) into lateral ventricle, rats, Morris' water maze
Protocol: For Morris' Water Maze Automatic Monitor and experimental protocols, reference may be made to the experiments of learning and memory damage of rats induced by brain hypoperfusion.
Male Wistar rats, which were 10-weeks old and weighed approximately 280 grams, were used. One animal was placed in one cage, while the room temperature was kept at 23° C., with food and water freely accessible. Rats were anaesthetized with sodium pentobarbital (40 mg/kg), and were fixed to stereotaxic apparatus with the position of ventral decubitus. Head skin was cut open, a cannula for Aβ (1-40) perfusion was implanted into right ventricle. According to the stereotaxic profile of rat brain by Paxions and Watson, the implantation site was located 0.3 mm behind and 1.1 mm in the right side of anterior fontanelle, with the depth of 4.0 mm. The cannula was connected to a micro-osmotic pump. The pump was placed on the back of the rat. Aβ (1-40) was dissolved in 35% acetonitrile/0.1% trifluroacetic acid, and was continuously perfused intracerebroventricularly (i.c.v.) at 300 pmol/day, while only the solvent (35% acetonitrile/0.1% trifluroacetic acid) was perfused in the control group.
Rats were randomly classified into […] groups, with 10 animals per group. 1) the sham surgery group: only 35% acetonitrile/0.1% trifluroacetic acid+solvent was perfused into the ventricles of the rats; 2) the model group: Aβ (1-40)+solvent; 3) Aβ (1-40)+L-NBP 10 mg/kg group; 4) Aβ (1-40)+L-NBP 30 mg/kg group. Respective drug or solvent was drenched since the 2nd day after the surgery. The water maze experiment was performed on the 9-13 day after the surgery, while the platform exploration experiment was performed on the 13th day, and the working memory test was performed on the 14-16th days. Animals were decapitated to remove brains for biochemical assay on the 17th day. In all ethological tests, medicines were administered 40 minutes prior to the respective test.
The water maze training experiment was performed on the 9-13th day after icv Aβ (1-40), and the platform exploration experiment was performed on the 13 day after that. The working memory test was performed on the 14-16th day after icv Aβ (1-40) (see the figure above), which investigated the ability of rapid learning and spatial memory in animals when the platform and quadrant were changed, based on the fact that animals had memorized in some extent after training and platform exploration experiment. Experimental procedure was similar to the standard water maze training experiment except that the platform's location was changed every day. The experiment was conducted five times every day, allowing the rats to start swimming from five water-entry sites respectively. […] In the following 4 experiments, the location of the platform was kept constant, yet the water entry sites were within different quadrants. The latency of working memory was calculated by averaging those of the 2-5th experiments, and the ability of working memory of each rat was calculated by averaging the experimental values in 3 days.
All results were expressed in mean±standard error. Comparison of latencies between groups in water maze experiment was performed using two-factor analysis of variance in replicate. Comparison between groups was performed using post hoc LSD or Turkey test. Platform exploration test in water maze experiment, working memory test and biochemical assay were analyzed using one-factor analysis of variance. A difference was considered significant when p<0.05.

[3] = test system: rats with coriamyrtin-induced impaired learning and memory; conditions: Shuren Yu et al. 1988, cited from earlier work

Row | Structure (SMILES) | effect on detention time in the target quadrant (platform exploration test) ([1]; 10 mg/kg oral) | improvement of latency / search strategy in water maze ([1]; 10 mg/kg oral) | effect on detention time in the target quadrant (platform exploration test) ([1]; 30 mg/kg oral) | improvement of latency / search strategy in water maze ([1]; 30 mg/kg oral) | amelioration of impaired short-term memory and spatial orientation (overall conclusion) ([1]; listed as racemic (DL-)) | amelioration of impaired short-term memory and spatial orientation (overall conclusion) ([1]; listed as racemic butylphthalide) | amelioration of impaired short-term memory and stereotaxic memory (overall conclusion) [2] | improvement of impaired learning and memory induced by coriamyrtin [3] | protection of hippocampal cells ([3]; coriamyrtin) | amelioration of impaired short-term memory and spatial orientation (overall conclusion) [1] | amelioration of impaired short-term memory and spatial orientation (overall conclusion) ([1]; listed as D-butylphthalide)
1 | CCCCC1OC(=O)c2ccccc21 (racemic) [DL-NBP, 3-n-butylphthalide] | no effect | no significant effect of improvement; also recorded: no obvious improved effect | no effect | no significant effect of improvement; also recorded: no obvious improved effect | could not | neither racemic butylphthalide nor D-butylphthalide were effective | neither D-NBP nor DL-NBP showed similar effects | could be used to improve the impaired learning and memory | protect hippocampal cells | – | –
2 | CCCC[C@H]1OC(=O)c2ccccc21 [D-NBP, D-n-butylphthalide] | – | – | – | no significant effect of improvement; also recorded: no obvious improved effect | – | – | neither D-NBP nor DL-NBP showed similar effects | – | – | could not | neither racemic butylphthalide nor D-butylphthalide were effective
